Values joined by “and” are separate entries in the source; they are usually repeats but may differ in a detail not shown here. Identical values can stand only once. Inconclusive results and toxic doses are left out. No stated cut-off is given here; in the data, active means T/C of 150% or more; inactive means T/C below 125%. Square brackets hold non-standard residues; d marks the D form. Peptide text beside a SMILES is read from it. ξ: configuration not given here. ξY = NC(Cc1ccc(O)cc1)C(=O)O
Tested on: L1210 leukemia ip in BDF1 mice, survival T/C
Assay: NCI In Vivo Anticancer Drug Screen. Data for tumor model L1210 Leukemia (intraperitoneal) in B6D2F1 (BDF1) mice
Settings: endpoint: mean survival time, higher = longer survival
Method in brief: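 In this screen, tumor-bearing mice given compound are compared to those given vehicle, and their survival values are reported as a treated-to-control quotient.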

[1] = dose: 100.0 mg/kg/injection, schedule: Q01DX009 (ip), vehicle: Klucel (hydroxypropylcellulose) (HPC)
[2] = dose: 100.0 mg/kg/injection, schedule: Q04DX003 (ip), vehicle: Klucel (hydroxypropylcellulose) (HPC)
[3] = dose: 200.0 mg/kg/injection, schedule: Q04DX003 (ip), vehicle: Klucel (hydroxypropylcellulose) (HPC)
[4] = dose: 400.0 mg/kg/injection, schedule: Q04DX003 (ip), vehicle: Klucel (hydroxypropylcellulose) (HPC)
[5] = dose: 100.0 mg/kg/injection, schedule: Q04DX002 (ip), vehicle: Klucel (hydroxypropylcellulose) (HPC)
[6] = dose: 200.0 mg/kg/injection, schedule: Q04DX002 (ip), vehicle: Klucel (hydroxypropylcellulose) (HPC)
[7] = dose: 400.0 mg/kg/injection, schedule: Q04DX002 (ip), vehicle: Klucel (hydroxypropylcellulose) (HPC)
[8] = dose: 100.0 mg/kg/injection, schedule: Q01DX001 (ip), vehicle: saline
[9] = dose: 200.0 mg/kg/injection, schedule: Q01DX001 (ip), vehicle: saline
[10] = dose: 400.0 mg/kg/injection, schedule: Q01DX001 (ip), vehicle: saline
[11] = dose: 200.0 mg/kg/injection, schedule: Q01DX009 (ip), vehicle: Klucel (hydroxypropylcellulose) (HPC)
[12] = dose: 400.0 mg/kg/injection, schedule: Q01DX009 (ip), vehicle: Klucel (hydroxypropylcellulose) (HPC)
[13] = dose: 100.0 mg/kg/injection, schedule: Q04DX003 (ip), vehicle: saline with Tween-80
[14] = dose: 25.0 mg/kg/injection, schedule: Q01DX009 (ip), vehicle: saline with Tween-80
[15] = dose: 50.0 mg/kg/injection, schedule: Q01DX009 (ip), vehicle: saline with Tween-80
[16] = dose: 100.0 mg/kg/injection, schedule: Q01DX009 (ip), vehicle: saline with Tween-80
[17] = dose: 200.0 mg/kg/injection, schedule: Q01DX009 (ip), vehicle: saline with Tween-80

Measured: T/C

CCCSC(=O)N(CC)C(=NCC)c1ccc(NC(=O)c2ccc(C(=O)Nc3ccc(C(=NCC)N(CC)C(=O)SCCC)cc3)cc2)cc1
inactive: dose: 2.25 mg/kg/injection, schedule: Q01DX015 (ip), vehicle: methylcellulose (MC) 104 % of control | dose: 4.5 mg/kg/injection, schedule: Q01DX015 (ip), vehicle: methylcellulose (MC) 100 % of control | dose: 9.0 mg/kg/injection, schedule: Q01DX015 (ip), vehicle: methylcellulose (MC) 100 % of control | dose: 18.0 mg/kg/injection, schedule: Q01DX015 (ip), vehicle: methylcellulose (MC) 102 % of control | dose: 75.0 mg/kg/injection, schedule: Q01DX015 (ip), vehicle: methylcellulose (MC) 90 % of control | dose: 150.0 mg/kg/injection, schedule: Q01DX015 (ip), vehicle: methylcellulose (MC) 86 % of control

O=c1cc(-c2ccccc2)oc(-c2ccc(Cl)cc2)c1
inactive: dose: 25.0 mg/kg/injection, schedule: Q01DX009 (ip), vehicle: Klucel (hydroxypropylcellulose) (HPC) 98 % of control | dose: 50.0 mg/kg/injection, schedule: Q01DX009 (ip), vehicle: Klucel (hydroxypropylcellulose) (HPC) 98 % of control | [1] 100 % of control | [2] 97 % of control | [3] 90 % of control | [4] 100 % of control

O=C(O)Cc1n[nH]c(=O)c2ccccc12
inactive: [5] 93 % of control | [6] 99 % of control | [7] 102 % of control

NCC(=O)NC(Cc1ccc(O)cc1)C(=O)O (stereo not given) (H-Gly-[ξY]-OH)
inactive: [8] 104 % of control | [9] 105 % of control and 102 % of control | [10] 98 % of control and 93 % of control

CC(C)(C)C1COP(=S)(C(C)(C)C)OC1 (stereo not given)
inactive: [2] 102 % of control | [3] 93 % of control

CCOC(=O)/C(C)=C\C=C(\C)CCC=C(C)C
inactive: [1] 104 % of control | [11] 102 % of control | [12] 104 % of control

CCc1ccc(-n2cnc3c(=O)[nH]c(N)nc32)cc1
inactive: dose: 25.0 mg/kg/injection, schedule: Q01DX001 (ip), vehicle: saline with Tween-80 86 % of control | dose: 50.0 mg/kg/injection, schedule: Q01DX001 (ip), vehicle: saline with Tween-80 88 % of control | dose: 100.0 mg/kg/injection, schedule: Q01DX001 (ip), vehicle: saline with Tween-80 91 % of control

N=C(N)Sc1cc(O)ccc1O
inactive: dose: 50.0 mg/kg/injection, schedule: Q01DX009 (ip), vehicle: saline 94 % of control | dose: 100.0 mg/kg/injection, schedule: Q01DX009 (ip), vehicle: saline 93 % of control | dose: 100.0 mg/kg/injection, schedule: Q04DX003 (ip), vehicle: alcohol 102 % of control | dose: 200.0 mg/kg/injection, schedule: Q01DX009 (ip), vehicle: saline 96 % of control | dose: 200.0 mg/kg/injection, schedule: Q04DX003 (ip), vehicle: alcohol 104 % of control

Cc1ccc(S(=O)(=O)OC(CO)C(O)C(O)C(CO)OS(=O)(=O)c2ccc(C)cc2)cc1 (stereo not given) (tested in a mixture with another compound)
inactive: [5] 86 % of control | [6] 101 % of control | [7] 93 % of control

CC1c2cc(C(=O)O)ccc2OC1(C)C (stereo not given)
inactive: [8] 96 % of control | [9] 102 % of control | [10] 91 % of control

COc1ccc(-n2c(=O)c(N=Nc3ccccc3)c(O)n(-c3ccc(I)cc3)c2=S)cc1
inactive: [13] 97 % of control | dose: 200.0 mg/kg/injection, schedule: Q04DX003 (ip), vehicle: saline with Tween-80 100 % of control | dose: 400.0 mg/kg/injection, schedule: Q04DX003 (ip), vehicle: saline with Tween-80 116 % of control

O=c1[nH]nc(CCc2ccccc2)o1
inactive: [8] 97 % of control | dose: 100.0 mg/kg/injection, schedule: Q04DX003 (ip), vehicle: saline 98 % of control | [9] 92 % of control | dose: 200.0 mg/kg/injection, schedule: Q04DX003 (ip), vehicle: saline 93 % of control | [10] 95 % of control | dose: 400.0 mg/kg/injection, schedule: Q04DX003 (ip), vehicle: saline 113 % of control

CCCOP(=S)(NCCCOC)OCCC
inactive: dose: 50.0 mg/kg/injection, schedule: Q01DX009 (ip), vehicle: other 94 % of control | dose: 50.0 mg/kg/injection, schedule: Q04DX003 (ip), vehicle: other 95 % of control | dose: 100.0 mg/kg/injection, schedule: Q01DX001 (ip), vehicle: other 96 % of control | dose: 100.0 mg/kg/injection, schedule: Q01DX009 (ip), vehicle: other 100 % of control | dose: 100.0 mg/kg/injection, schedule: Q04DX003 (ip), vehicle: other 95 % of control | dose: 200.0 mg/kg/injection, schedule: Q01DX001 (ip), vehicle: other 102 % of control | dose: 200.0 mg/kg/injection, schedule: Q01DX009 (ip), vehicle: other 94 % of control | dose: 200.0 mg/kg/injection, schedule: Q04DX003 (ip), vehicle: other 97 % of control

CC(=O)N(C(C)=O)C1=C(c2ccccc2)C(=O)c2ccccc21
inactive: [1] 98 % of control | [2] 96 % of control | [11] 97 % of control | [3] 105 % of control | [12] 94 % of control | [4] 107 % of control

CC(C)(C)c1ccc(SCCN=C(N)CSS(=O)(=O)O)cc1
inactive: dose: 3.13 mg/kg/injection, schedule: Q01DX009 (ip), vehicle: Klucel (hydroxypropylcellulose) (HPC) 91 % of control | dose: 3.13 mg/kg/injection, schedule: Q04DX002 (ip), vehicle: Klucel (hydroxypropylcellulose) (HPC) 98 % of control | dose: 6.25 mg/kg/injection, schedule: Q01DX009 (ip), vehicle: Klucel (hydroxypropylcellulose) (HPC) 102 % of control | dose: 6.25 mg/kg/injection, schedule: Q04DX002 (ip), vehicle: Klucel (hydroxypropylcellulose) (HPC) 107 % of control | dose: 12.5 mg/kg/injection, schedule: Q04DX002 (ip), vehicle: Klucel (hydroxypropylcellulose) (HPC) 98 % of control and 106 % of control

CCOc1ccc(NC(=S)NC(=O)c2ccccc2F)cc1
inactive: [14] 92 % of control | [15] 104 % of control | [16] 87 % of control | [17] 87 % of control

O=C1C=C(C(c2ccccc2)c2ccccc2)C(=O)C=C1NS(=O)(=O)c1ccccc1
inactive: dose: 25.0 mg/kg/injection, schedule: Q01DX001 (ip), vehicle: Klucel (hydroxypropylcellulose) (HPC) 106 % of control | dose: 50.0 mg/kg/injection, schedule: Q01DX001 (ip), vehicle: Klucel (hydroxypropylcellulose) (HPC) 97 % of control | dose: 100.0 mg/kg/injection, schedule: Q01DX001 (ip), vehicle: Klucel (hydroxypropylcellulose) (HPC) 95 % of control

CCCCN(CCCC)CC(C)O (stereo not given)
inactive: [14] 101 % of control | dose: 25.0 mg/kg/injection, schedule: Q04DX003 (ip), vehicle: saline with Tween-80 104 % of control | [15] 95 % of control | dose: 50.0 mg/kg/injection, schedule: Q04DX003 (ip), vehicle: saline with Tween-80 96 % of control | [16] 104 % of control | [13] 98 % of control and 101 % of control

COC(=O)c1cc(NC(=O)Nc2ccc(Cl)cc2[N+](=O)[O-])cc(C(=O)OC)c1
inactive: [1] 92 % of control | [11] 101 % of control | [12] 93 % of control

Cc1ccc([N+](=O)[O-])cc1NC(=O)N(C1CCCCC1)C1CCCCC1
inactive: [1] 95 % of control | [11] 97 % of control | [12] 97 % of control

COC1OC(COS(=O)OC)C(O)C(O)C1OS(=O)OC (stereo not given)
inactive: dose: 100.0 mg/kg/injection, schedule: Q01DX001 (ip), vehicle: carboxymethylcellulose (CMC) 100 % of control | dose: 200.0 mg/kg/injection, schedule: Q01DX001 (ip), vehicle: carboxymethylcellulose (CMC) 97 % of control | dose: 400.0 mg/kg/injection, schedule: Q01DX001 (ip), vehicle: carboxymethylcellulose (CMC) 94 % of control

CC(=O)C(C(C)=O)C(c1ccccc1)C(C(C)=O)C(C)=O
inactive: [1] 94 % of control | [11] 91 % of control

CP(C)(=S)P(C)(C)=S
inactive: dose: 25.0 mg/kg/injection, schedule: Q04DX002 (ip), vehicle: Klucel (hydroxypropylcellulose) (HPC) 98 % of control | dose: 50.0 mg/kg/injection, schedule: Q04DX002 (ip), vehicle: Klucel (hydroxypropylcellulose) (HPC) 94 % of control | [5] 95 % of control and 112 % of control

O=C(O)c1cccc(C(=O)Oc2ccccc2-c2ccccc2)c1
inactive: [15] 94 % of control | [16] 87 % of control | [17] 94 % of control
